Experimental data: patent US8722849B2, “Polypeptides” (Novo Nordisk A/S, priority 2011, dated 2014)
≈ marks a conversion by molar mass, not a printed value. Where two headings read alike, the source gives them in different places. Starred links: 1 amine or outer side, 2 acyl side, 3 side chain; linkers in the order of their positions; H or OH if unused. Positions of bridges follow the written chain, without caps; N, C: chain ends. Residues, ends and D or L forms follow the SMILES beside them. Groups on a side chain read outwards from the residue. *: point of attachment. C20 diacid = O=C(O)CCCCCCCCCCCCCCCCCCC(=O)*; C18 diacid = O=C(O)CCCCCCCCCCCCCCCCC(=O)*; γGlu = O=C(O)[C@H](CCC(=O)[*:2])N[*:1]; AEEA = NCCOCCOCC(=O)O

Legend:
[1] = Assay (IV) determination of solubility; format: physicochemical
Summary of the method: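 Solubility was profiled across pH 3.0–8.0 after 18 hours at room temperature: a ~500 nmol/ml aqueous polypeptide solution was diluted 1:1 into 100 mM glycylglycine or bistrispropane buffers. After centrifugation, HPLC gave the dissolved concentration.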

[2] = target: T1, human calcitonin receptor (Homo sapiens, UniProt P30988); assay: Assay (II)a functional CRE-luciferase assay, human calcitonin receptor; format: cell-based; conditions: Table 7; human calcitonin (CTa) receptor
T1 construct: expressed in transfected cells; host or cells: BHK570
T1 sequence (P30988 25-474): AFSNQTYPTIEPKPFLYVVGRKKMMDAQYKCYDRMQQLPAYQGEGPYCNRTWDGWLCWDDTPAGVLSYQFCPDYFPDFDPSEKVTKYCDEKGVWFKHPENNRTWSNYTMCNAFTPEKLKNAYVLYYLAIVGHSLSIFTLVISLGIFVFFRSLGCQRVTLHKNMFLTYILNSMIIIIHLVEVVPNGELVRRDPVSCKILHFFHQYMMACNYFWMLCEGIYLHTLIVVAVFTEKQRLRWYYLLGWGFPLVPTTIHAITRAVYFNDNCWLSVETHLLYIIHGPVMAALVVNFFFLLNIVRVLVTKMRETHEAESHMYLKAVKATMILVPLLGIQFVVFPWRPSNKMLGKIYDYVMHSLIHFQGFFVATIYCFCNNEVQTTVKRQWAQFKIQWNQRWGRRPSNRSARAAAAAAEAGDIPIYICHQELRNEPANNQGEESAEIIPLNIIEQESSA

[3] = target: T2, rat calcitonin (a) receptor (Rattus norvegicus, UniProt P32214); assay: Assay (II)b functional cAMP FlashPlate assay, rat calcitonin receptor; format: cell-based; conditions: Table 11; read-out: CTa receptor rat EC50
T2 construct: expressed in transfected cells; host or cells: BHK tk'ts 13
T2 sequence (P32214 25-479 isoform P32214-2 limits assumed): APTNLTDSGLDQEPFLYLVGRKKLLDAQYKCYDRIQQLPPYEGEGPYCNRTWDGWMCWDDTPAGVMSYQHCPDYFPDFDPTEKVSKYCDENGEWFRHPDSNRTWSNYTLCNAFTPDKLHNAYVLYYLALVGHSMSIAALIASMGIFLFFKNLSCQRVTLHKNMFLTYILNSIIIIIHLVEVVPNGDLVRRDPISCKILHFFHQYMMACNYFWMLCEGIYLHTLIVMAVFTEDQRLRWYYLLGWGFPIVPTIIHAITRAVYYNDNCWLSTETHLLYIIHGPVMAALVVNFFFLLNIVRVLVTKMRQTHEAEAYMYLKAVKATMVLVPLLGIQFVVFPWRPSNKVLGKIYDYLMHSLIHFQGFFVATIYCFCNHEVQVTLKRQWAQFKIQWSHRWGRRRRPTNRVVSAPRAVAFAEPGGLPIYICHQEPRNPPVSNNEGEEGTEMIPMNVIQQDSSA
Summary of the method: (§1)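 cAMP accumulation in transiently transfected BHK tk'ts 13 cells, 100.000 cells/well, expressing rat calcitonin(a) receptor or its RAMP3 co-expression form (amylin 3(a)): 30 min stimulation with IBMX, 24 hours post-transfection. Readout by competition of cellular versus radiolabelled cAMP in FlashPlates, scintillation counted after 3 h.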

[4] = target: T3, human amylin receptor (amylin 3(a) receptor: human calcitonin receptor + RAMP-3) (Homo sapiens, UniProt O60896+P30988); assay: Assay (II)a functional CRE-luciferase assay, human amylin receptor; format: cell-based; conditions: Table 2; BHK amylin 3(a)-receptor/CRE-luc cells
T3 construct: expressed in transfected cells; host or cells: BHK570
T3 sequence (P30988 25-474): T1 sequence (P30988 25-474)
T3 sequence (O60896 24-148 partner): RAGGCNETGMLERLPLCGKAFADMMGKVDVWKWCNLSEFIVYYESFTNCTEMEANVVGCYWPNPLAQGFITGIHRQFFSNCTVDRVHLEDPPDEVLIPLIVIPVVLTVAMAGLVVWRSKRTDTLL

[5] = target: T4, rat amylin 3(a) receptor (rat calcitonin(a) receptor + rat RAMP3) (Rattus norvegicus, UniProt P32214+Q9JJ73); assay: Assay (II)b functional cAMP FlashPlate assay, rat amylin receptor; format: cell-based; conditions: Table 11
T4 construct: expressed in transfected cells; host or cells: BHK tk'ts 13
T4 sequence (P32214 25-479 isoform P32214-2 limits assumed): T2 sequence (P32214 25-479 isoform P32214-2 limits assumed)
T4 sequence (Q9JJ73 23-147 partner): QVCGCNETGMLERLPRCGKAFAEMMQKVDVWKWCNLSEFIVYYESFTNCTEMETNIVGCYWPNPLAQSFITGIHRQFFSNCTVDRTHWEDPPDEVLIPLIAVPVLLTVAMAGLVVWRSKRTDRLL
Summary of the method: as §1

[6] = bistrispropane buffer, pH 6, pH 6.0, read-out: Solubility pH 6.0
[7] = bistrispropane buffer, pH 6.5, pH 6.5, read-out: Solubility pH 6.5
[8] = bistrispropane buffer, pH 7, pH 7.0, 18 hours at room temperature, Table 3, read-out: Solubility pH 7.0
[9] = bistrispropane buffer, pH 7, pH 7.0, Table 8, read-out: Solubility pH 7.0
[10] = bistrispropane buffer, pH 7, pH 7.0, read-out: Solubility pH 7.0
[11] = bistrispropane buffer, pH 7.5, pH 7.5, read-out: Solubility pH 7.5
[12] = bistrispropane buffer, pH 8, pH 8.0, read-out: Solubility pH 8.0
[13] = glycylglycine buffer, pH 3, pH 3.0, read-out: Solubility pH 3.0
[14] = glycylglycine buffer, pH 4, pH 4.0, 18 hours at room temperature, Table 2, read-out: Solubility pH 4.0
[15] = glycylglycine buffer, pH 4, pH 4.0, read-out: Solubility pH 4.0
[16] = glycylglycine buffer, pH 5, pH 5.0, read-out: Solubility pH 5.0

SMILES | solubility at 18 h [1, 6] [µM] | solubility at 18 h [1, 7] [µM] | solubility at 18 h [1, 8] [µM] | solubility at 18 h [1, 9] [µM] | solubility at 18 h [1, 10] [µM] | solubility at 18 h [1, 11] [µM] | solubility at 18 h [1, 12] [µM] | solubility at 18 h [1, 13] [µM] | solubility at 18 h [1, 14] [µM] | solubility at 18 h [1, 15] [µM] | solubility at 18 h [1, 16] [µM] | EC50 [2] [nM] | EC50 [3] [nM] | EC50 [4] [nM] | EC50 [5] [nM]
CC(C)C[C@H](NC(=O)[C@H](CCCNC(=N)N)NC(=O)[C@H](CCC(N)=O)NC(=O)[C@@H](NC(=O)[C@H](C)NC(=O)[C@@H]1CSSC[C@H](NC(=O)[C@H](CCCCN)NC(=O)CC[C@H](NC(=O)CCCCCCCCCCCCCCCCCCC(=O)O)C(=O)O)C(=O)N[C@@H](CC(N)=O)C(=O)N[C@@H]([C@@H](C)O)C(=O)N[C@@H](C)C(=O)N[C@@H]([C@@H](C)O)C(=O)N1)[C@@H](C)O)C(=O)N[C@@H](C)C(=O)N[C@@H](CCC(=O)O)C(=O)N[C@@H](Cc1ccccc1)C(=O)N[C@@H](CC(C)C)C(=O)N[C@@H](CCCNC(=N)N)C(=O)N[C@@H](Cc1c[nH]cn1)C(=O)N[C@@H](CO)C(=O)N[C@@H](CO)C(=O)N[C@@H](CC(N)=O)C(=O)N[C@@H](CC(N)=O)C(=O)N[C@@H](Cc1ccccc1)C(=O)NCC(=O)N[C@@H](C)C(=O)N1CCC[C@H]1C(=O)N[C@@H](CC(C)C)C(=O)N[C@@H](CO)C(=O)N[C@@H](CO)C(=O)N[C@H](C(=O)N[C@@H](CC(N)=O)C(=O)N[C@H](C(=O)NCC(=O)N[C@@H](CO)C(=O)N[C@@H](Cc1c[nH]cn1)C(=O)N[C@H](C(=O)N[C@@H](Cc1ccc(O)cc1)C(N)=O)[C@@H](C)O)C(C)C)[C@@H](C)O [Example 65, N-alpha-[(S)-4-Carboxy-4-(19-carboxynonadecanoylamino)butyryl]-[Glu14,Arg17,Ala25,Pro26,Ser28,Ser29,His35]-pramlintide] ({C20 diacid-γGlu}-KCNTATCATQRLAEFLRHSSNNFGAPLSSTNVGSHTY-NH2; disulfide 2-7 (inferred); C-terminus assumed) | > 200 | > 200 | 176 (≈ 781 µg/mL) | 176 (≈ 781 µg/mL) | 176 (≈ 781 µg/mL) | 96 (≈ 426 µg/mL) | 89 (≈ 395 µg/mL) | > 200 | > 200 | > 200 | > 200 | 0.342 | 5.35 | 0.217 | 1.33
CC[C@H](C)[C@H](NC(=O)[C@@H]1CCCN1C(=O)CNC(=O)[C@H](Cc1ccccc1)NC(=O)[C@H](CC(N)=O)NC(=O)[C@H](CC(N)=O)NC(=O)[C@H](CO)NC(=O)[C@H](CO)NC(=O)[C@H](Cc1c[nH]cn1)NC(=O)[C@H](Cc1c[nH]cn1)NC(=O)[C@H](CC(C)C)NC(=O)[C@H](Cc1ccccc1)NC(=O)[C@H](CCC(=O)O)NC(=O)[C@H](C)NC(=O)[C@H](CC(C)C)NC(=O)[C@H](CCCNC(=N)N)NC(=O)[C@H](CCC(N)=O)NC(=O)[C@@H](NC(=O)[C@H](C)NC(=O)[C@@H]1CSSC[C@H](NC(=O)[C@H](CCCCN)NC(=O)[C@H](Cc2c[nH]cn2)NC(=O)CC[C@H](NC(=O)CCCCCCCCCCCCCCCCCCC(=O)O)C(=O)O)C(=O)N[C@@H](CC(N)=O)C(=O)N[C@@H]([C@@H](C)O)C(=O)N[C@@H](C)C(=O)N[C@@H]([C@@H](C)O)C(=O)N1)[C@@H](C)O)C(=O)N[C@@H](CC(C)C)C(=O)N1CCC[C@H]1C(=O)N1CCC[C@H]1C(=O)N[C@H](C(=O)N[C@@H](CC(N)=O)C(=O)N[C@H](C(=O)NCC(=O)N[C@@H](CO)C(=O)N[C@@H](Cc1c[nH]cn1)C(=O)N[C@H](C(=O)N[C@@H](Cc1ccc(O)cc1)C(N)=O)[C@@H](C)O)C(C)C)[C@@H](C)O [Example 66, N-alpha-[(S)-4-Carboxy-4-(19-carboxynonadecanoylamino)butyryl]-His-[Glu14,His17,His35]-pramlintide] ({C20 diacid-γGlu}-HKCNTATCATQRLAEFLHHSSNNFGPILPPTNVGSHTY-NH2; disulfide 3-8 (inferred); C-terminus assumed) | > 200 | 155 (≈ 716 µg/mL) |  |  | 46 (≈ 212 µg/mL) | 77 (≈ 355 µg/mL) | 144 (≈ 665 µg/mL) | > 200 | > 200 | > 200 | > 200 | 0.21 | 0.656 | 0.182 | 0.305
CC[C@H](C)[C@H](NC(=O)[C@H](CCCCNC(=O)COCCOCCNC(=O)COCCOCCNC(=O)CC[C@H](NC(=O)CCCCCCCCCCCCCCCCC(=O)O)C(=O)O)NC(=O)CNC(=O)[C@H](Cc1ccccc1)NC(=O)[C@H](CC(N)=O)NC(=O)[C@H](CC(N)=O)NC(=O)[C@H](CO)NC(=O)[C@H](CO)NC(=O)[C@H](Cc1c[nH]cn1)NC(=O)[C@H](Cc1c[nH]cn1)NC(=O)[C@H](CC(C)C)NC(=O)[C@H](Cc1ccccc1)NC(=O)[C@H](CCC(=O)O)NC(=O)[C@H](C)NC(=O)[C@H](CC(C)C)NC(=O)[C@H](CCCNC(=N)N)NC(=O)[C@H](CCC(N)=O)NC(=O)[C@@H](NC(=O)[C@H](C)NC(=O)[C@@H]1CSSC[C@H](NC(=O)[C@@H](N)CCCCN)C(=O)N[C@@H](CC(N)=O)C(=O)N[C@@H]([C@@H](C)O)C(=O)N[C@@H](C)C(=O)N[C@@H]([C@@H](C)O)C(=O)N1)[C@@H](C)O)C(=O)N[C@@H](CC(C)C)C(=O)N1CCC[C@H]1C(=O)N1CCC[C@H]1C(=O)N[C@H](C(=O)N[C@@H](CC(N)=O)C(=O)N[C@H](C(=O)NCC(=O)N[C@@H](CO)C(=O)N[C@@H](CC(N)=O)C(=O)N[C@H](C(=O)N[C@@H](Cc1ccc(O)cc1)C(N)=O)[C@@H](C)O)C(C)C)[C@@H](C)O [Example 73, N-epsilon25-[2-(2-{2-[2-(2-{2-[(S)-4-Carboxy-4-(17-carboxyheptadecanoylamino)butyrylamino]ethoxy}ethoxy)acetylamino]ethoxy}ethoxy)acetyl]-[Glu14,His17,Lys25]-pramlintide] (H-KCNTATCATQRLAEFLHHSSNNFGK([AEEA-AEEA-γGlu-C18 diacid])ILPPTNVGSNTY-NH2; disulfide 2-7 (inferred); N-terminus and C-terminus assumed) | > 200 | > 200 | 155 (≈ 736 µg/mL) | 155 (≈ 736 µg/mL) | 155 (≈ 736 µg/mL) | 169 (≈ 803 µg/mL) | > 200 | > 200 | > 200 | > 200 | > 200 | 0.045 | 0.167 | 0.0385 | 0.052
